Experimental findings from article PMC10063614, “Turning universal O into rare Bombay type blood” (Nature Communications, 2023) are described below.

This test addresses T1, FucOB (Amuc_1120), α-1,2-L-Fucosidase O to Bombay (Akkermansia muciniphila, UniProt B2UR61).
T1 construct: signal peptide (residues 1-23) removed, additional N-terminal 17-residue peptide with His tag; pET29a, E. coli BL21(DE3); monomer in crystal
Briefly: released fucose by L-fucose dehydrogenase/NADPH assay. In kind it is biochemical. Particulars: 20 mM Tris-HCl pH 6.8, 37 °C, 30 min; enzyme:substrate 1:100,000.

T1 sequence (B2UR61 entry or part of it): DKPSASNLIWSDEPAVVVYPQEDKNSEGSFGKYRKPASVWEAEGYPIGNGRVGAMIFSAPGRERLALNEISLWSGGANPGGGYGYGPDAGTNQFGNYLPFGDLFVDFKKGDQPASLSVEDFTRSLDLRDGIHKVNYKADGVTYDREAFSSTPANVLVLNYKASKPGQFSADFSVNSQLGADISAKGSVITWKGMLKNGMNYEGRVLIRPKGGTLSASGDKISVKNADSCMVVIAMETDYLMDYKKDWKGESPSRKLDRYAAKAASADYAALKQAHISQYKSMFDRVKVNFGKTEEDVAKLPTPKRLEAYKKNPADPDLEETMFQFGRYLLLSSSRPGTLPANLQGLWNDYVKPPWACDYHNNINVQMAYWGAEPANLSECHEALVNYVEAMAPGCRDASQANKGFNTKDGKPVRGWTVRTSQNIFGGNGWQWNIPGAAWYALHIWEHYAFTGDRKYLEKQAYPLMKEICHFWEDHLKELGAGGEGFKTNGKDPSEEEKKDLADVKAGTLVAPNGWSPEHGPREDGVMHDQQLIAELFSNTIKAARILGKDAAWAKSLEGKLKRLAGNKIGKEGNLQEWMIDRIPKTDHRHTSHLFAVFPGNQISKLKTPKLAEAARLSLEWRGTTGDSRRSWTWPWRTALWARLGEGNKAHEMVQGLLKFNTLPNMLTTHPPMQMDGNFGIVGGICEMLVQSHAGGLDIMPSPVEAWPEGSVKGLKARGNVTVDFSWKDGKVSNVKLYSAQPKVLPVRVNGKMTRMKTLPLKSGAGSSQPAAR

`C[C@@H]1O[C@@H](O[C@H]2[C@H](O[C@H]3[C@H](O)[C@@H](O)C(O)O[C@@H]3CO)O[C@H](CO)[C@H](O)[C@@H]2O)[C@@H](O)[C@H](O)[C@@H]1O` (some centres unmarked) [2’-fucosyllactose]: the “released fucose by L-fucose dehydrogenase/NADPH assay” value is on record as “FucOB hydrolyzes all three types of H antigen structures to obtain the afucosylated Bombay phenotype”.
The same measure for `CC(=O)N[C@H]1C(O)O[C@H](CO)[C@@H](O[C@@H]2O[C@H](CO)[C@H](O)[C@H](O)[C@H]2O[C@@H]2O[C@@H](C)[C@@H](O)[C@@H](O)[C@@H]2O)[C@@H]1O` (some centres unmarked) [blood group H antigen triaose type II]: “FucOB hydrolyzes all three types of H antigen structures to obtain the afucosylated Bombay phenotype”.
